≈ marks a conversion by molar mass, not a printed value.

The test system of data set [1] is Mus musculus. As to the kind of experiment: In-vivo inhibition of TPH1 in mouse assessed as 5-HT level in intestinal mucosa at 150 mg/kg, po administered as single dose relative to control. Details: scale not given: the % may be the effect or the level left. The data set is classed as functional.
Data set [2] can be described thus: Kinetic aqueous solubility in pH 7.4 50 mM phosphate buffer. The data set is classed as physicochemical. The following applies: read-out: Kinetic_solubility.
A short description of data set [3]: Protein binding in rat plasma by equilibrium dialysis. The data set is classed as ADME, cell-free. Particulars: read-out: PPB (converted). (In general: Equilibrium dialysis compares concentrations on both sides of a semipermeable membrane.)

On to `N/C(=N\C(=O)c1ccc(C[C@H](N)C(=O)O)cc1)NCc1c(Oc2ccccc2)cccc1N1CCCCC1`, for which the Activity in data set [1] turned out to be 80%.
As to `N/C(=N\C(=O)c1ccc(C[C@H](N)C(=O)O)cc1)NCc1cc(-c2ccccc2)ccc1N1CCCCC1`, in data set [2], the solubility kinetic worked out at 16 µM (≈ 7.99 µg/mL).
Consider `CCOC(=O)[C@@H](N)Cc1ccc(C(=O)/N=C(\N)NCc2c(C)cccc2N2CCCCCC2)cc1`, for which the Activity in data set [1] is given as 62%.
Take `Cc1cccc(N2CCCCCC2)c1CN/C(N)=N/C(=O)c1ccc(C[C@H](N)C(=O)O)cc1`: the Activity in data set [1] came out at 72%. For the same compound, the solubility kinetic in data set [2] came out at 40 µM (≈ 18.1 µg/mL).
Take `CCOC(=O)[C@@H](N)Cc1ccc(C(=O)/N=C(\N)NCc2c(Oc3ccccc3)cccc2N2CCCCC2)cc1`: the Activity in data set [1] was determined as 62%.
Take `Nc1nc(OC(c2ccc(-c3cccc(F)c3)cc2)C(F)(F)F)cc(-c2ccc(C[C@H](N)C(=O)O)cc2)n1` (stereo not given in full): the fraction unbound in data set [3] is below 0.001. The solubility kinetic in data set [2] turned out to be 2.1 µM (≈ 1.11 µg/mL).
The like results for `COc1cccc(Oc2cccc(N3CCCCC3)c2CN/C(N)=N/C(=O)c2ccc(C[C@H](N)C(=O)O)cc2)c1` were, in that order, 0.12 and above 40 µM.
